“Also recorded” adds a separate entry of the source. Where a name gives a salt, the structure may show the parent alone.
How the values were obtained:
[1] = test system: mice with DC crush injury; test: Spinal cord water content (oedema) after DC crush injury in mice; assay type: in vivo, mouse; details: for spinal cord water content, comparison of MMP inhibitors (FIG. 4) / spinal cord water content: 3 days after DC injury; for spinal cord water content, comparison of MMP inhibitors (FIG. 4): doses and routes of Table 1, vs DC+vehicle
Description: For oral delivery of AZD1236, n=6 adult male C57BL6 mice/group (Charles River, Margate, UK) were randomly allocated to either: (1), Sham (control; partial laminectomy but no DC crush injury); (2), DC crush injury+vehicle (partial laminectomy followed by DC crush injury and injection of vehicle); (3), DC crush injury+100 mg/kg AZD1236; (4), DC crush injury+200 mg/kg AZD1236; and (5), DC crush injury+300 mg/kg AZD1236. For intrathecal (it) delivery of AZD1236, adult male C57BL6 mice (25-30 g) (Charles River, Margate, UK) were randomly allocated to either: (1), Sham (control; partial laminectomy but no DC crush injury); (2), DC crush injury+vehicle (partial laminectomy followed by DC crush injury and injection of vehicle); (3), DC crush injury+2.5 mg/kg AZD1236; (4), DC crush injury+5 mg/kg AZD1236; and (5), DC crush injury+10 mg/kg AZD1236. For intrathecal delivery an indwelling atlanto-occipital intrathecal catheter was inserted into the intrathecal space, as described previously (F. A. Oladosu, B. P. Ciszek, S. C. O'Buckley, A. G. Nackley, Novel intrathecal and subcutaneous catheter delivery systems in the mouse. J Neurosci Methods 264, 119-128 (2016)). Briefly, with mice in the sternal recumbency a small incision was made at the nape of the neck followed by detachment of the muscles on either side of the external occipital crest to expose the A-O membrane. The membrane was incised and a 6 cm Alzet mouse intrathecal catheter (Alzet, Cupertino, Calif., USA) and polyurethane segments were gently guided 2.5 cm into the intrathecal space. The catheter was secured using 4-0 silk sutures (Oasis Medical, IL) and the exposed end of the catheter was sealed off with a stainless-steel plug and affixed to the upper back. Animals were injected immediately with vehicle or AZD1236 followed by a 10 μl PBS catheter flush. Injections were repeated every twice daily for the first 3 days after injury and drugs and vehicle reagents were delivered over 1 min time period using a Hamilton microlitre syringe (Hamilton Co, USA). Where specified intact animals with no surgical procedures were also used. All lesions were administered under 5% isofluorane induced inhalation anaesthesia, with 1.51/min O2. Pre- and post-injury analgesia was also provided.
DC crush injury was administered bilaterally at the T8 vertebral level as described previously (S. Surey, M. Berry, A. Logan, R. Bicknell, Z. Ahmed, Differential cavitation, angiogenesis and wound-healing responses in injured mouse and rat spinal cords. Neuroscience 275, 62-80 (2014); M. L. Read, S. Mir, R. Spice, R. J. Seabright, E. L. Suggate, Z. Ahmed, M. Berry, A. Logan, Profiling RNA interference (RNAi)-mediated toxicity in neural cultures for effective short interfering RNA design. J Gene Med 11, 523-534 (2009)). Briefly, calibrated watchmaker's forceps were separated by 0.5 mm and inserted through the dorsal cord meninges to a depth of 0.45 mm in mice and separated by 1 mm and inserted through the dorsal cord meninges to a depth of 1.0 mm in rats, and the DC were crushed for 3 seconds. AZD1236 or vehicle was administered twice daily by oral gavage or intrathecally, either immediately for the first 3 days or 24 hours after injury and treating twice daily until day 4 (i.e. 3 days of AZD1236 dosing). All experiments were performed with n=6 mice/group and repeated on at least 2-3 independent occasions (total=12-18 animals/group/test).
The lesion site+3 mm either side for mice and the lesion site+5 mm either side for the rat DC model were dissected out and the water content of the spinal cord (as a measure of oedema) was determined at 3 days after DC and CC SCI, as described previously (S. Li, C. H. Tator, Effects of MK801 on evoked potentials, spinal cord blood flow and cord edema in acute spinal cord injury in rats. Spinal Cord 37, 820-832 (1999)). Spinal cords containing the lesion site were weighed on aluminium foil, dried at 105° C. for 24 hr, and re-weighed. […]

[2] = test system: mice with DC crush injury; assay type: in vivo, mouse; details: for number of CTB+ DC axons regenerating, comparison with other MMP inhibitors (FIG. 11): mouse, in vivo
[3] = test system: J774A.1, RAW 264.7 and primary mouse peritoneal macrophages; test: Transwell migration assay of macrophages; assay type: cell-based; details: J774A.1 and RAW 264.7, 3 h
Description: J774A.1 cells (#TIB-67; ATCC, Middlesex, UK) were cultured in DMEM supplemented with 10% FBS, 100 U/ml penicillin, 100 μg/ml streptomycin, and 0.25 μg amphotericin B. Cells were seeded in T75 tissue-culture flasks and maintained at 37° C. and 5% CO2. RAW 264.7 cells (#TIB-71; ATCC) were maintained in DMEM containing 10% FBS.
Resident peritoneal cells were harvested from adult C57BL/6 mice (6-8 weeks old) by injection of 10 ml of PBS using a 21G needle into the peritoneal cavity and harvesting the cell suspension, as described previously (Rosas M, Davies L C, Giles P J, Liao C T, Kharfan B, Stone T C, et aL. The transcription factor Gata6 links tissue macrophage phenotype and proliferative renewal. Science 2014; 344(6184): 645-8). Peritoneal cells were then centrifuged at 100×g for 10 min and the cell pellet resuspended in DMEM/F12 medium. Cell were incubated at 37° C., for 2 h and non-adherent cells were removed by gentle washing. Cells were expanded in DMEM/F12 medium containing 10% FBS. For migration assays, cells were grown in RPMI containing 0.02% BSA for 24 h to obtain quiescent cells prior to using them in Transwell migration assays as described below.
Migration assays were performed with J774A.1, RAW 264.7 and primary mouse peritoneal macrophages in 6.5 mm Transwell plates (ThermoFisher) with 8 μm pore inserts, as described previously (Green et al., 2012). Briefly, inserts were coated with rat tail type I collagen and 1×10^5 cells (J774A.1, RAW 264.7 or primary mouse macrophages) were resuspended in chemotaxis buffer (RMPI 1640 plus 0.02% BSA, (termed RPMI from herein)) and added to the upper chamber and incubated with migration medium, with or without known chemotactic factors MCP-1 (100 ng/ml) and PMA (100 nM), or AZD1236, GM6001, SD2590 and MMP-9 Inhibitor I (all used at 1, 10, 100, 1000 ng/ml) added to the lower chamber. Cells were allowed to migrate through the insert membrane for 3 h at 37° C., before washing inserts with PBS. Non-migrating cells remaining on the upper surface were removed with a cotton swab whilst the migrated cells on the insert were fixed, stained with Diff-Quick (#26096, Electron Microscopy Science, Hatfield, UK), and mounted on glass slides. Migration was measured visually by counting using a light microscope at 40× magnification. The mean number of cells in 10 random fields were calculated for each treatment by an experimenter masked to the treatment conditions. A migration index was calculated by dividing the number of cells that migrated in response to the chemokine by the number of cells that migrated randomly (RPMI medium) with a reference index>1, indicating chemotaxis.

Row | Compound | spinal cord water content, comparison of MMP inhibitors (FIG. 4) [1] | intrathecal dose required for same reduction of water content, as fraction of oral dose ([1]; intrathecal vs oral) | spinal cord water content ([1]; intrathecal, 5.0 and 10.0 mg/kg) | SCI-induced water content, 24-h delayed treatment ([1]; optimal doses, 24 h delay vs immediate) | spinal cord water content ([1]; oral, twice daily, 200 mg/kg and 300 mg/kg) | CTB+ fibres regenerating through the lesion site, 24 h delayed treatment ([2]; 24 h delay vs immediate) | number of CTB+ DC axons regenerating, comparison with other MMP inhibitors (FIG. 11) [2] | extension of CTB labelled axons from the lesion centre ([2]; oral) | CTB+ labeling intensity (percentage of CTB labelled axons) ([2]; oral, vs DC+Vehicle) | macrophage migration (migration index, chemotaxis) [3]
1 | C[C@]1(CS(=O)(=O)N2CC=C(C#Cc3cnc(C4CC4)nc3)CC2)NC(=O)NC1=O [AZD1236] | far more effective than any of these compounds; also recorded: almost completely ablating DC injury-induced rises | 1/40 | reduced to sham-treated levels | equally as effective as immediate delivery | reducing to sham-treated levels | promoted the same amount | far superior at promoting DC axon regeneration | at least 1000 μm | significantly enhanced percentage of CTB labelled axons | no effect on chemotaxis
2 | CNC(=O)[C@H](Cc1c[nH]c2ccccc12)NC(=O)[C@@H](CC(=O)NO)CC(C)C [GM6001, (2R)—N^4-Hydroxy-N^1-[(1S)-1-(1H-indol-3-ylmethyl)-2-(methylamino)-2-oxoethyl]-2-(2-methylpropyl)butanediamide, reference compound] | significantly reduced spinal cord water content | – | – | – | – | – | only a marginal effect on axon regeneration | – | – | not affected
3 | CCN(CC)Cc1cc(C)c(N(Cc2ccccc2)S(=O)(=O)c2ccc(OC)cc2)c(C(=O)NO)c1 [MMP-9 Inhibitor I, reference compound] | significantly reduced spinal cord water content | – | – | – | – | – | only a marginal effect on axon regeneration | – | – | not affected
4 | COCCN1CCC(C(=O)NO)(S(=O)(=O)c2ccc(Oc3ccc(OC(F)(F)F)cc3)cc2)CC1 [SD2590, N-Hydroxy-1-(2-methoxyethyl)-4-[4-[4-(trifluoromethoxy)phenoxy]phenyl]sulfonyl]-4-piperidinecarboxamide hydrochloride, reference compound] | significantly reduced spinal cord water content | – | – | – | – | – | only a marginal effect on axon regeneration | – | – | not affected
